Experimental data as given in US20250051391A1, “PEPTIDE INHIBITORS AND METHODS FOR INHIBITING PROTEIN AGGREGATION IN NEURONS AND NEURODEGENERATIVE DISEASES” (THE GOVERNING COUNCIL OF THE UNIVERSITY OF TORONTO, priority 2021, published 2025).

Assays:
[1] = test system: HEK293 cells overexpressing human a-syn (WT); test: Cytotoxicity screen of lentiviral 7-mer peptide library, Alpha Syn (WT) cells under MG132; type: cell-based; conditions: for Reads 0 uM MG132 / Reads 10 UM MG132 / Reads 25 UM MG132: normalized Illumina peptide counts
Description: (§1) A screening system to discover candidate peptides to perturb endogenous PPIs based on libraries of short linear interaction motifs that mediate a large fraction (˜30%) of human PPIs (10-12) was recently developed. Here, a lentiviral library of 50,549 7-mer peptide motifs (13) on a green fluorescent protein (GFP) scaffold (FIG. 1A) was used. Cells in a pooled format were infected and the amino acid sequence of each peptide served as its own barcode. By using a low multiplicity of infection followed by puromycin selection, each infected cell expressed one unique GFP-peptide. Peptides that reduced a-syn-mediated cytotoxicity or a-syn oligomers in parallel (FIG. 1A), were screened for.
(§2) To cause cytotoxicity relevant to PD, proteostatic stress in HEK293 cells was induced by inhibiting the proteasome with MG132 and inducing the overexpression of human a-syn (WT) from idiopathic PD in one screen and the more toxic A53T mutant from familial PD in a second screen. The combination of a-syn overexpression and pharmacological proteasome inhibition led to death of most cells, with only those that expressed a protective peptide surviving. By extracting genomic DNA from the surviving cells and amplifying the peptide coding sequences, the protective peptides (FIG. 1A) were identified.
(§3) PCR primers that included the Illumina adaptor sequences were used to amplify peptide coding sequences recovered from selection and cell sorting. Results were demultiplexed, and peptide counts were tallied. After demultiplexing, only reads with an average quality Phred score of >30 were selected, and frequencies were calculated. Finally, the reads were then normalized to the total number of peptides read for that sample population, and a scalar factor was applied. In parallel, ˜25 individual colonies were Sanger sequenced to compare to the NGS data.
(§4) Lentiviruses were made in a 15 cm dish format by transfecting packaging cells (293T) with a three-plasmid system as previously described. Viral transduction of HEK293T cells, tet-off split luciferase a-syn cells, tet-off parent cells, and SH-SY5Y cells were performed with a multiplicity of infection of 0.3 (MOI=0.3). Infected cells were selected in puromycin-containing medium to eliminate uninfected cells and three aliquots of cells were collected for sampling of the initial (TO) cell population. Cells were treated with MG132 at concentrations of 0 μM, 10 μM, 25 μM or 50 μM. For the cell viability screen, surviving cells were collected and gDNA was extracted for identification of peptide inhibitors of cell toxicity. For the inhibition of a-syn aggregation screen, split YFP-a-syn constructs were transfected following stable expression of the peptides. Cells were sorted based on their GFP fluorescence intensities with a FACSVantage SE cell sorter (BD Bioscience).
(§5) Genomic DNA (gDNA) from peptide expressing cells at different time-points was extracted using QIAamp DNA Blood Mini Kit. PCR amplifications of peptides from gDNA in parallel with the lentiviral plasmid library (naïve library) were performed using indexed Illumina PCR primers to incorporate both the Illumina adapter sequences and indexing sequences. Each 50 μl reaction contained 3.2 μg of template, 2×PCR buffer, 2× enhancer solution, 300 μM each dNTP, 900 nM each of Adapter A (5′-[…]-[…]-3′) (SEQ ID NO: 42) and Adapter B (5′-[…]-[…]-3′) (SEQ ID NO: 43), 1 mM MgSO4, 3.75 units of Platinum Pfx polymerase, and water to 50 μl. The PCR reaction was performed by denaturing at 94° C. for 5 minutes, followed by cycling (94° C. for 30 seconds, 65° C. for 30 seconds, 68° C. for 30 seconds)×28 cycles, 68° C. for 5 minutes, then cooling to 4° C. The resulting 244 bp product was purified by electrophoresis in 2% agarose followed by gel extraction. Peptide libraries were quantified using Quant-It assay (Invitrogen) and pooled. […]

[2] = test system: a-syn oligomers in HEK293 cells; test: Oligomers screen (split YFP-a-syn protein fragment complementation, FACS); type: cell-based, human; conditions: for Reads GFP High: FACS fraction GFP High; for Reads GFP Inter: FACS fraction GFP Inter; for Reads GFP Neg: FACS fraction GFP Neg
Description: To detect a-syn oligomers, a protein fragment complementation assay (PCA) of a-syn oligomerization in HEK293 cells (14) was used. In this assay, human A53T a-syn was fused to either the C- or N-terminal half of yellow fluorescent protein (YFP). No fluorescence is detectable while a-syn exists in monomers but, when a-syn oligomerizes, the two halves of YFP come in close enough proximity to form a functional, spontaneously fluorescent protein. […] By using fluorescence activated cell sorting (FACS), cells expressing Flag-tagged peptides that directly or indirectly interfered with a-syn oligomer formation were isolated and then the peptides were identified from genomic DNA (FIG. 1A). The screens yielded 10 hits (Table 1). The hit with the most reads (i.e., the most abundant) was the same peptide in all screens: IPIQLKA (SEQ ID NO: 1) (PDpep1) (Table 2). […] Lead peptide targets CHMP2B, a member of ESCRT-III
as §3, §4
Cells were harvested by trypsin treatment and centrifuged at 500×g for 5 minutes. The pellet was resuspended in ice-cold PBS and centrifuged again. The pellet was then resuspended at a concentration of 4×10^6 cells/ml in the sorting buffer, which is PBS containing 100 Kunitz Dnase l/ml, 10 μg/ml propidium iodide (Sigma) and 2% FBS. The sorting solution was also supplemented with either 10 μM forskolin, 100 μM 5,6-Dichlorobenzimidazole riboside (DRB, Sigma), 10 μM forskolin (Sigma) and 100 μM DRB or DMSO, as a control. The cells were then sent through a 40 μm filter to remove large clumps and loaded into either a FACScan Flow Cytometer (BD Bioscience) for cell analysis or a FACSVantage SE cell sorter (BD Bioscience) for cell sorting. The cells with positive propidium iodide staining (i.e., dead cells) were first eliminated from the analysis or sorting pool. For cell sorting, the desired population, either the most or least bright EGFP-positive cells, according to the purpose of the experiments (see Results), was sorted into either 15 ml conical tubes or 96-well plates, which both contained complete DMEM culture media.
Genomic DNA (gDNA) from peptide expressing cells at different time-points was extracted using QIAamp DNA Blood Mini Kit. PCR amplifications of peptides from gDNA in parallel with the lentiviral plasmid library (naïve library) were performed using indexed Illumina PCR primers to incorporate both the Illumina adapter sequences and indexing sequences. […]

[3] = test system: HEK293 cells overexpressing A53T a-syn; test: Cytotoxicity screen of lentiviral 7-mer peptide library, Alpha syn A53T cells under MG132; type: cell-based, human; conditions: for Reads 0 uM MG132 / Reads 10 UM MG132 / Reads 25 UM MG132 / Reads 50 UM MG132: normalized Illumina peptide counts
Description: as §1, §2, §3, §4, §5

| Substance | Slope Norm Reads [1] | Reads 0 uM MG132 [1] | Reads 10 UM MG132 [1] | Reads 25 UM MG132 [1] | Reads Ratio [2] | Reads GFP High [2] | Reads GFP Inter [2] | Reads GFP Neg [2] | Slope Norm Reads [3] | Reads 0 uM MG132 [3] | Reads 10 UM MG132 [3] | Reads 25 UM MG132 [3] | Reads 50 UM MG132 [3] |
| --- | --- | --- | --- | --- | --- | --- | --- | --- | --- | --- | --- | --- | --- |
| AAYNLCA [7-mer library hit, Alpha Syn screen] | 0.07 | 1 | 14 | 19 |  |  |  |  |  |  |  |  |  |
| CFLFQIQ [7-mer library hit, oligomers screen] |  |  |  |  | 45.32 | 1 | 0 | 88 |  |  |  |  |  |
| CKYRSVL [7-mer library hit, A53T screen] |  |  |  |  |  |  |  |  | 1.30 | 5 | 7 | 11 | 438 |
| CMVHSAG [7-mer library hit, Alpha Syn screen] | 0.08 | 4 | 14 | 33 |  |  |  |  |  |  |  |  |  |
| DWLMVNL [7-mer library hit, Alpha Syn screen] | 0.13 | 1 | 13 | 29 |  |  |  |  |  |  |  |  |  |
| ECHTKIR [7-mer library hit, oligomers screen] |  |  |  |  | 39.21 | 1 | 0 | 76 |  |  |  |  |  |
| EDVNKCV [7-mer library hit, A53T screen] |  |  |  |  |  |  |  |  | 0.68 | 6 | 6 | 13 | 233 |
| GAAAGGT [7-mer library hit, Alpha Syn screen] | 0.06 | 1 | 10 | 17 |  |  |  |  |  |  |  |  |  |
| GWTTVRR [7-mer library hit, A53T screen] |  |  |  |  |  |  |  |  | 0.94 | 15 | 1 | 29 | 322 |
| LKRDQPV [7-mer library hit, oligomers screen] |  |  |  |  | 30.30 | 3 | 0 | 118 |  |  |  |  |  |
| LPASMPC [7-mer library hit, Alpha Syn screen] | 0.09 | 2 | 16 | 27 |  |  |  |  |  |  |  |  |  |
| LPSKIYK [7-mer library hit, oligomers screen] |  |  |  |  | 29.53 | 1 | 0 | 57 |  |  |  |  |  |
| LQVGVAV [7-mer library hit, Alpha Syn screen] | 0.09 | 1 | 25 | 23 |  |  |  |  |  |  |  |  |  |
| LSGECVP [7-mer library hit, Alpha Syn screen] | 0.07 | 3 | 28 | 28 |  |  |  |  |  |  |  |  |  |
| MQMKLSQ [7-mer library hit, oligomers screen] |  |  |  |  | 36.15 | 1 | 0 | 70 |  |  |  |  |  |
| NNQYSFV [7-mer library hit, oligomers screen] |  |  |  |  | 30.04 | 1 | 0 | 58 |  |  |  |  |  |
| PAMQIDG [7-mer library hit, A53T screen] |  |  |  |  |  |  |  |  | 0.96 | 32 | 20 | 53 | 337 |
| PLPTGMG [7-mer library hit, Alpha Syn screen] | 0.08 | 1 | 3 | 20 |  |  |  |  |  |  |  |  |  |
| QAELSNS [7-mer library hit, A53T screen] |  |  |  |  |  |  |  |  | 0.69 | 6 | 8 | 10 | 235 |
| QSPSSAW [7-mer library hit, A53T screen] |  |  |  |  |  |  |  |  | 0.82 | 9 | 45 | 59 | 284 |
| QSVLQQV [7-mer library hit, A53T screen] |  |  |  |  |  |  |  |  | 0.82 | 13 | 2 | 12 | 282 |
| QSVVTAP [7-mer library hit, A53T screen] |  |  |  |  |  |  |  |  | 1.38 | 8 | 6 | 37 | 465 |
| QVSVAQQ [7-mer library hit, A53T screen] |  |  |  |  |  |  |  |  | 0.69 | 45 | 13 | 120 | 246 |
| RAPSCHL [7-mer library hit, Alpha Syn screen] | 0.15 | 1 | 13 | 33 |  |  |  |  |  |  |  |  |  |
| TQKRELT [7-mer library hit, oligomers screen] |  |  |  |  | 35.64 | 1 | 0 | 69 |  |  |  |  |  |
| VYLDILG [7-mer library hit, oligomers screen] |  |  |  |  | 30.55 | 1 | 0 | 59 |  |  |  |  |  |
| WPRYPHI [7-mer library hit, oligomers screen] |  |  |  |  | 47.36 | 1 | 0 | 92 |  |  |  |  |  |
